Tested on: NHBE cells
Test: Biolog metabolic array: substrate use by NHBE cells with or without CA09 infection
Format: cell-based, human
Conditions: for Substrate use, 590 nm absorbance normalized to zero hour, 1 hr: Biolog PMM2, 1 hr; for Substrate use, 590 nm absorbance normalized to zero hour, 5 hr: Biolog PMM2, 5 hr; for Substrate use, 590 nm absorbance normalized to zero hour, 7 hr: Biolog PMM2, 7 hr; for Substrate use, 590 nm absorbance normalized to zero hour, 0 hr: Biolog PMM2, 0 hr
[1] = Control (uninfected) NHBE cells
[2] = Virus (CA09-infected, MOI 1) NHBE cells
[3] = Virus: CA09-infected NHBE cells, MOI 1, Biolog PMM2
[4] = Virus (CA09, MOI 1) infected NHBE cells
[5] = Virus (CA09-infected NHBE cells, MOI 1)

O=C[C@@H](O)[C@H](O)[C@H](O)CO [D-Arabinose]
590 nm absorbance normalized to zero hour (substrate use), 1 hr [1]: 1.59
590 nm absorbance normalized to zero hour (substrate use), 2 hr [1]: 1.50
590 nm absorbance normalized to zero hour (substrate use), 3 hr [1]: 0.77
590 nm absorbance normalized to zero hour (substrate use), 4 hr [1]: 1.35
590 nm absorbance normalized to zero hour (substrate use), 6 hr [1]: 0.39
590 nm absorbance normalized to zero hour (substrate use), 8 hr [1]: 1.00
590 nm absorbance normalized to zero hour (substrate use), 9 hr [1]: 1.14
590 nm absorbance normalized to zero hour (substrate use), 10 hr [1]: 0.96
590 nm absorbance normalized to zero hour (substrate use), 11 hr [1]: 1.35
Substrate use, 590 nm absorbance normalized to zero hour, 1 hr [1]: 1.59
Substrate use, 590 nm absorbance normalized to zero hour, 5 hr [1]: 0.99
Substrate use, 590 nm absorbance normalized to zero hour, 7 hr [1]: 1.04
590 nm absorbance normalized to zero hour (substrate use), 1 hr [2]: 0.65
590 nm absorbance normalized to zero hour (substrate use), 2 hr [2]: 0.90
590 nm absorbance normalized to zero hour (substrate use), 3 hr [2]: 1.03
590 nm absorbance normalized to zero hour (substrate use), 4 hr [2]: 1.07
590 nm absorbance normalized to zero hour (substrate use), 5 hr [2]: 1.22
590 nm absorbance normalized to zero hour (substrate use), 6 hr [2]: 1.29
590 nm absorbance normalized to zero hour (substrate use), 7 hr [2]: 1.37
590 nm absorbance normalized to zero hour (substrate use), 8 hr [2]: 1.33
590 nm absorbance normalized to zero hour (substrate use), 9 hr [2]: 1.34
590 nm absorbance normalized to zero hour (substrate use), 10 hr [2]: 1.38
590 nm absorbance normalized to zero hour (substrate use), 11 hr [2]: 1.58
590 nm absorbance normalized to zero hour (substrate use), 1 hr [3]: 0.65
590 nm absorbance normalized to zero hour (substrate use), 2 hr [3]: 0.90
590 nm absorbance normalized to zero hour (substrate use), 3 hr [3]: 1.03
590 nm absorbance normalized to zero hour (substrate use), 4 hr [3]: 1.07
590 nm absorbance normalized to zero hour (substrate use), 5 hr [3]: 1.22
590 nm absorbance normalized to zero hour (substrate use), 6 hr [3]: 1.29
590 nm absorbance normalized to zero hour (substrate use), 7 hr [3]: 1.37
590 nm absorbance normalized to zero hour (substrate use), 8 hr [3]: 1.33
590 nm absorbance normalized to zero hour (substrate use), 9 hr [3]: 1.34
590 nm absorbance normalized to zero hour (substrate use), 10 hr [3]: 1.38
590 nm absorbance normalized to zero hour (substrate use), 11 hr [3]: 1.58

O=P(O)(O)OC[C@H](O)CO (racemic) [D,L-a-Glycerol Phosphate]
590 nm absorbance normalized to zero hour (substrate use), 0 hr [1]: 1.00
590 nm absorbance normalized to zero hour (substrate use), 1 hr [1]: 0.34
590 nm absorbance normalized to zero hour (substrate use), 2 hr [1]: 0.48
590 nm absorbance normalized to zero hour (substrate use), 3 hr [1]: 0.56
590 nm absorbance normalized to zero hour (substrate use), 4 hr [1]: 0.60
590 nm absorbance normalized to zero hour (substrate use), 6 hr [1]: 0.71
590 nm absorbance normalized to zero hour (substrate use), 8 hr [1]: 0.83
590 nm absorbance normalized to zero hour (substrate use), 9 hr [1]: 0.91
590 nm absorbance normalized to zero hour (substrate use), 10 hr [1]: 0.91
590 nm absorbance normalized to zero hour (substrate use), 11 hr [1]: 1.05
Substrate use, 590 nm absorbance normalized to zero hour, 0 hr [1]: 1.00
Substrate use, 590 nm absorbance normalized to zero hour, 1 hr [1]: 0.34
Substrate use, 590 nm absorbance normalized to zero hour, 5 hr [1]: 0.70
Substrate use, 590 nm absorbance normalized to zero hour, 7 hr [1]: 0.79
Substrate use, 590 nm absorbance normalized to zero hour, 0 hr [4]: 1.00
Substrate use, 590 nm absorbance normalized to zero hour, 1 hr [4]: 2.01
Substrate use, 590 nm absorbance normalized to zero hour, 5 hr [4]: 3.72
Substrate use, 590 nm absorbance normalized to zero hour, 7 hr [4]: 4.18
590 nm absorbance normalized to zero hour (substrate use), 0 hr [2]: 1.00
590 nm absorbance normalized to zero hour (substrate use), 1 hr [2]: 2.01
590 nm absorbance normalized to zero hour (substrate use), 2 hr [2]: 2.64
590 nm absorbance normalized to zero hour (substrate use), 3 hr [2]: 3.07
590 nm absorbance normalized to zero hour (substrate use), 4 hr [2]: 3.24
590 nm absorbance normalized to zero hour (substrate use), 6 hr [2]: 3.99
590 nm absorbance normalized to zero hour (substrate use), 8 hr [2]: 4.43
590 nm absorbance normalized to zero hour (substrate use), 9 hr [2]: 4.93
590 nm absorbance normalized to zero hour (substrate use), 10 hr [2]: 5.12
590 nm absorbance normalized to zero hour (substrate use), 11 hr [2]: 5.62

O=C(O)CC(CC(=O)O)C(=O)O [Tricarballylic Acid]
590 nm absorbance normalized to zero hour (substrate use), 1 hr [1]: 1.07
590 nm absorbance normalized to zero hour (substrate use), 2 hr [1]: 1.03
590 nm absorbance normalized to zero hour (substrate use), 3 hr [1]: 0.79
590 nm absorbance normalized to zero hour (substrate use), 4 hr [1]: 1.20
590 nm absorbance normalized to zero hour (substrate use), 6 hr [1]: 0.35
590 nm absorbance normalized to zero hour (substrate use), 8 hr [1]: 0.54
590 nm absorbance normalized to zero hour (substrate use), 9 hr [1]: 0.83
590 nm absorbance normalized to zero hour (substrate use), 10 hr [1]: 0.74
590 nm absorbance normalized to zero hour (substrate use), 11 hr [1]: 0.59
Substrate use, 590 nm absorbance normalized to zero hour, 1 hr [1]: 1.07
Substrate use, 590 nm absorbance normalized to zero hour, 5 hr [1]: 0.72
Substrate use, 590 nm absorbance normalized to zero hour, 7 hr [1]: 0.89
590 nm absorbance normalized to zero hour (substrate use), 1 hr [5]: 0.20
590 nm absorbance normalized to zero hour (substrate use), 2 hr [5]: 0.25
590 nm absorbance normalized to zero hour (substrate use), 3 hr [5]: 0.29
590 nm absorbance normalized to zero hour (substrate use), 4 hr [5]: 0.29
590 nm absorbance normalized to zero hour (substrate use), 5 hr [5]: 0.32
590 nm absorbance normalized to zero hour (substrate use), 6 hr [5]: 0.34
590 nm absorbance normalized to zero hour (substrate use), 7 hr [5]: 0.36
590 nm absorbance normalized to zero hour (substrate use), 8 hr [5]: 0.36
590 nm absorbance normalized to zero hour (substrate use), 9 hr [5]: 0.39
590 nm absorbance normalized to zero hour (substrate use), 10 hr [5]: 0.40
590 nm absorbance normalized to zero hour (substrate use), 11 hr [5]: 0.38
590 nm absorbance normalized to zero hour (substrate use), 1 hr [3]: 0.20
590 nm absorbance normalized to zero hour (substrate use), 2 hr [3]: 0.25
590 nm absorbance normalized to zero hour (substrate use), 3 hr [3]: 0.29
590 nm absorbance normalized to zero hour (substrate use), 4 hr [3]: 0.29
590 nm absorbance normalized to zero hour (substrate use), 5 hr [3]: 0.32
590 nm absorbance normalized to zero hour (substrate use), 6 hr [3]: 0.34
590 nm absorbance normalized to zero hour (substrate use), 7 hr [3]: 0.36
590 nm absorbance normalized to zero hour (substrate use), 8 hr [3]: 0.36
590 nm absorbance normalized to zero hour (substrate use), 9 hr [3]: 0.39
590 nm absorbance normalized to zero hour (substrate use), 10 hr [3]: 0.40
590 nm absorbance normalized to zero hour (substrate use), 11 hr [3]: 0.38

— patent US11083725B2 (priority 2014, dated 2021)
